US7658954B2, “Synergistic antipyretic formulation” (Council of Scientific & Industrial Research, priority 2004, dated 2010)
Marks after values point to notes of the source that are not given here.

System: yeast induced pyrexia
Experiment: Antipyretic effect on yeast induced pyrexia in rats
Assay type: in vivo
Settings: Paracetamol 150 mg/kg

CC(=O)Nc1ccc(O)cc1 [Paracetamol]
Rectal temperature before and after treatment (0 h): 37.7 ± 0.2 °C
Rectal temperature before and after treatment (1 h): 39.0 ± 0.2 °C
Rectal temperature before and after treatment (2 h): 38.1 ± 0.3 °C
Rectal temperature before and after treatment (3 h): 37.7 ± 0.2^b ° C.
Rectal temperature before and after treatment (4 h): 37.6 ± 0.2 °C
